This is an account of results in patent publication US20090061005A1, “Paliperidone Polymorphs” (ACTAVIS GROUP PTC EHF, priority 2007, published 2009).

Series [1] can be described thus: Water (moisture) content of Form A2 by TGA. The class given is physicochemical. As for the experimental part: Thermogravimetric analysis (TGA) was performed with a NETZSCH STA 409C/CD instrument. The term “water content” refers to the content of water based upon the Loss on Drying method as described in Pharmacopeial Forum, Vol. 24, No. 1, page 5438 (January-February 1998). The calculation of water content is based upon the percent of weight that is lost by drying. For Form A2 the term “water content” refers to the content of water based upon a TGA measurement.

Series [2] can be described thus: Extended drying of Form A2 under vacuum (retention of hydrate water). The class given is physicochemical. The settings on record: drying for 12 hours at about 80° C. under vacuum.

Structures are written as SMILES. Where “and” joins values, the source holds several entries; their conditions need not be identical. Equal entries are not always repeated.

Turning to `Cc1nc2n(c(=O)c1CCN1CCC(c3noc4cc(F)ccc34)CC1)CCCC2O` (racemic) [Form A2, (±)-3-[2-[4-(6-fluoro-1,2-benzisoxazol-3-yl)-1-piperidinyl]ethyl]-6,7,8,9-tetrahydro-9-hydroxy-2-methyl-4H-pyrido[1,2-a]pyrimidin-4-one], in series [1] (Form A2 obtained by the process, stable and consistently reproducible), the water content is 2.5-4 % w/w. The Moisture content in series [1] (isolated solid after drying under high vacuum at 60-70° C. for about 12 hours) was 4 % w/w and 2.7 % w/w. Also, in series [2], the “removal of moisture on extended drying” value is given as “moisture could not be removed”.
